The values below come from US11168106B1, “Synthesis and stabilization of nicotinamide ribose and its derivatives” (priority 2017, dated 2021).

Data set [1] in a line: Decomposition of nicotinamide ribose in water with and without borate, HPTLC read at 254 nm. The class given is physicochemical. The settings on record: for Area [%] of assigned substance, decomposition of nicotinamide ribose with borate: boric acid added in 1:1 molar ratio, in water; for Area [%] of assigned substance, decomposition of nicotinamide ribose with borate / Area [%] of assigned substance, decomposition of nicotinamide ribose without borate: water bath 65° C., 8 h, HPTLC at 254 nm; for Area [%] of assigned substance, decomposition of nicotinamide ribose without borate: 1 mg/mL in water. As for the experimental part:
Nicotinamide riboside (NR) as its chloride salt was used at 100 mM. Boric acid: was used at 300 mM. All samples were prepared in water. This, 1 mg/mL of nicotinamide riboside of capsule content was weighed in a 25 mL volumetric flask. Water was added to 25 mL total volume. For the reaction in the presence of boric acid, the same was done with boric acid added in a 1:1 molar ratio. In either case, 5 mL of each solution prepared was placed in the water bath at 65° C. A control was incubated at room temperature. After incubation for 8 h, 2 μL of each solution (heated and not heated) are placed on the HPTLC plate. The plate is eluted in the following mobile phase: ethanol, ammonium acetate 1 M (7:3). The plate is read at 254 nm to obtain the respective peaks.

The test system of another data set is NAD. The settings on record: healthy middle-aged and older adults, cited from earlier work.

Take `NC(=O)c1cccnc1` [Nicotinamide]: in data set [1], the “Area [%] of assigned substance, decomposition of nicotinamide ribose with borate” value turned out to be 13.92% and the “Area [%] of assigned substance, decomposition of nicotinamide ribose without borate” value was 29.8122%.

On to `NC(=O)c1ccc[n+]([C@@H]2O[C@H](CO)[C@@H](O)[C@H]2O)c1` [Nicotinamide riboside], for which, in data set [1], the “Area [%] of assigned substance, decomposition of nicotinamide ribose with borate” value stood at 86.08% and the “Area [%] of assigned substance, decomposition of nicotinamide ribose without borate” value turned out to be 70.1878%. The “Stabilization with respect to decomposition” value in data set [1] (boric acid vs no boric acid (FIG. 3 and FIG. 4)) is reported as “stabilized by boric acid”. Further, the “Effect on NAD level” value in the data set on NAD (chronic supplementation) is reported as “elevates NAD”. Besides, the “Tolerability of chronic supplementation” value in the data set with NAD is on record as “well-tolerated”.
